From US10414797B2, “Gelatinase inhibitors and use thereof” (Iproteos S.L, priority 2015, dated 2019)
Where a SMILES comes first, the peptide text is derived from it. [ ]: non-standard residue; d: D form. The star is where a group is joined. ξ: configuration not given here. NMeW = CN[C@@H](Cc1c[nH]c2ccccc12)C(=O)O; Benzoyl(3,5-F2) = O=C(c1cc(F)cc(F)c1)*; NMeIle(3ξ) = CCC(C)[C@H](NC)C(=O)O; NMeF = CN[C@@H](Cc1ccccc1)C(=O)O; NMeQ = CN[C@@H](CCC(N)=O)C(=O)O; NMeL = CN[C@@H](CC(C)C)C(=O)O; NMeA = CN[C@@H](C)C(=O)O; Dab = NCC[C@H](N)C(=O)O; Butyryl = CCCC(=O)*; NHOH = ON*

Legend:
[1] = target: MMP-1 (Homo sapiens (Human), UniProt P03956); experiment: MMP-1 inhibition assay (fluorogenic peptide substrate); assay type: biochemical; settings: recombinant MMP-1 5.52 nM, Mca-PLGL-Dpa-AR-NH2 10 μM, 4 hours at room temperature; tested at 1, 10, 100 and 200 μM
Protocol: (§1) All the experiments were done in 1× reaction buffer, which was obtained from a 10× reaction buffer solution. The content of the 10× reaction buffer was: 50 mL of 0.5 M Tris-HCl, 1.5 M NaCl, 50 mM CaCl2 and 2 mM sodium azide at pH 7.6. To obtain the 1× reaction buffer 4 mL of the 10× reaction buffer were diluted in 36 mL of H2O.
Recombinant MMP-1 expressed in E. Coli was obtained from Enzo Life Sciences (catalog number BML-SE180). Mca-PLGL-Dpa-AR-NH2 (fluorogenic peptide substrate) was obtained from R&D Systems (catalog number ES001).
Preparation of the MMP-1 for the activity assay: MMP-1 was provided as a stock solution (0.55 mg/mL). The enzyme was diluted in 1× reaction buffer to a final concentration of 276 nM.
MMP-1 peptide substrate was provided as a stock solution in DMSO (6 mM). For the assay, the substrate was diluted 1× reaction buffer to a concentration of 100 μM.
Procedure: The enzymatic assays were performed in 96-well microtiter plate, which allowed simultaneous monitoring of multiple reactions. For each reaction, 86 μL of 1× reaction buffer (pH 7.6), 2 μL of MMP-1 (final concentration 5.52 nM) and 2 μL of the corresponding new compound were added to each well. A stock solution of the new compound was prepared in DMSO (100 mM), and dilutions were prepared from this stock solution with DMSO. Finally, to the mixture contained in each well 10 μL of the substrate were added (final concentration 10 μM). The reaction was incubated for 4 hours at room temperature in an orbital shaker (100 rpm).
(§2) The inhibitory activity of the new compound was measured fluorimetrically. The excitation and emission wavelengths were 320 and 405 nm, respectively.
(§3) Inhibitory activity at several concentration points (1, 10, 100 and 200 μM) were measured for each compound. The inhibitory activity on MMP-1, MMP-3 and MMP-7 was calculated according to eq 1 and The IC50 value was calculated as explained above for MMP-2 and MMP-9.

[2] = target: MMP-3 (Homo sapiens (Human), UniProt P08254); experiment: MMP-3 inhibition assay (fluorogenic peptide substrate); assay type: biochemical; settings: recombinant MMP-3 7.7 nM, Mca-RPKPVE-Nval-WRK(Dnp)-NH2 10 μM, 4 hours at room temperature; tested at 1, 10, 100 and 200 μM
Protocol: as §1
Recombinant MMP-3 expressed in E. Coli was obtained from Merck-Millipore (catalog number 44217). Mca-RPKPVE-Nval-WRK(Dnp)-NH2 (fluorogenic peptide substrate) was obtained from R&D Systems (catalog number ES002).
Preparation of the MMP-3 for the activity assay: MMP-3 was provided as a stock solution (0.1 mg/mL). The enzyme was diluted in water to a final concentration of 0.005 mg/mL.
MMP-3 peptide substrate was provided as a stock solution in DMSO (4.5 mM). For the assay, the substrate was diluted 1× reaction buffer to a concentration of 100 μM.
Procedure: The enzymatic assays were performed in 96-well microtiter plate, which allowed simultaneous monitoring of multiple reactions. For each reaction, 84.6 μL of 1× reaction buffer (pH 7.6), 3.4 μL of MMP-3 (final concentration 7.7 nM) and 2 μL of the corresponding new compound were added to each well. A stock solution of new compound was prepared in DMSO (100 mM), and dilutions were prepared from this stock solution with DMSO. Finally, to the mixture contained in each well 10 μL of the substrate were added (final concentration 10 μM). The reaction was incubated for 4 hours at room temperature in an orbital shaker (90 rpm).
as §2, §3

[3] = Parallel artificial membrane permeability assay (PAMPA), Blood-Brain Barrier; assay type: in vitro ADME; settings: initial concentration 200 μM, pH 7.4, 4 hours; for Papp at 4 h, 200 µM: pig, read-out: Effective permeability Pe
Protocol: Parallel Artificial Membrane Permeability Assay (PAMPA)
Parallel artificial membrane permeability assay (PAMPA) described in Kansy et al., J. M. Chem. 1998; 41(7):1007-10 was used here to determine the capacity of compounds to cross the Blood-Brain Barrier (BBB) by passive diffusion (Di L et al., Eur. J. Med. Chem. 2003; 38(3):223-32). The effective permeability (Pe) of the compounds was measured at an initial concentration of 200 μM. The buffer solution was prepared from a commercial concentrated one following the manufacturer's instructions. pH was adjusted to 7.4 using a 0.5 M NaOH solution. A stock solution of new compound was prepared in DMSO and diluted with buffer solution to a final 200 μM concentration (0.5% DMSO content). The PAMPA sandwich was separated and each donor well was filled with […] of the compound solution. The acceptor plate was placed into the donor plate, ensuring that the underside of the membrane was in contact with buffer. 4 μL of the mixture of phospholipids (20 mg/ml) in dodecane was added to the filter of each well, and 200 μL of buffer solution was added to the each acceptor well. The plate was covered and incubated at room temperature in a saturated humidity atmosphere for 4 hours under orbital agitation at 100 rpm. After 4 hours, the contents of the acceptor and donor compartments were analyzed by HPLC: 150 μL of each well from the donor plate and 150 μL of each well from the acceptor plate were transferred to HPLC vials, injecting each sample into a reverse-phase C18 column (150 mm×4.6 mm×5 μm, 100 Å) (100 μL/injection from the acceptor wells, 10 μL/injection from the donor wells and for t0 references). Transport was also confirmed using mass spectrometry (MALDI-TOF).
The phospholipid mixture used was a porcine polar brain lipid extract, provided by Avanti polar lipids, with the following composition: 12.6% phosphatidylcholine (PC), 33.1% phosphatidylethanolamine (PE), 18.5% phosphatidylserine (PS), 4.1% phosphatidylinositol (PI), 0.8% phosphatidic acid and 30.9% of other compounds.
The effective permeability (Pe) after 4 hours was calculated using equation 2 and the percentage of transport (T %) was calculated using equation 3: […]
Ca(t) is the compound concentration in the acceptor well at time t
And Cd(t0) is the compound concentration in the donor well at t0.

Chain of MMP-3 (P08254 100-477): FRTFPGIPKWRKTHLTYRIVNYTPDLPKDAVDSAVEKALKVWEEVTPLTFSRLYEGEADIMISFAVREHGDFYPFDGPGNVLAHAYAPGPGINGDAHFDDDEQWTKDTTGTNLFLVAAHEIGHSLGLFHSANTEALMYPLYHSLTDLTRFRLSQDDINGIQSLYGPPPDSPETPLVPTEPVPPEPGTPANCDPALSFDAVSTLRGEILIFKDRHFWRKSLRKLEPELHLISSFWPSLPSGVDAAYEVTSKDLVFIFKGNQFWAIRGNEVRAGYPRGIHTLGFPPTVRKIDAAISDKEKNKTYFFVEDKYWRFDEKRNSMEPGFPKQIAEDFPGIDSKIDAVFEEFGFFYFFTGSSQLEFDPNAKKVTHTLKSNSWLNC
Chain of MMP-1 (P03956 100-269): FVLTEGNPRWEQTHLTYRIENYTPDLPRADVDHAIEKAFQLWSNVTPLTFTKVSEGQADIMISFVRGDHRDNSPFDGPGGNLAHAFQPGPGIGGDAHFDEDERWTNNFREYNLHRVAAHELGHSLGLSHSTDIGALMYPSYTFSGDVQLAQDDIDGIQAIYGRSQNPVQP

SMILES	MMP-1 IC50 [1] [µM]	IC50 [2] [µM]	percentage of transport % T [3] [%]	Papp at 4 h, 200 µM [3] [×10⁻⁶ cm/s]	IC50 [1] [µM]	MMP-3 IC50 [2] [µM]
CCC(C)[C@@H](C(=O)N[C@@H](CCNC(=O)c1cc(F)cc(F)c1)C(=O)NO)N(C)C(=O)[C@@H]1CCCN1C(=O)[C@H](Cc1ccccc1)N(C)C(C)=O (stereo partly drawn) [Example 11, (2 S)-1-[(2S)-2-[acetyl(methyl)amino]-3-phenyl-propanoyl]-N-[(1S)-1-[[(1S)-3-[(3,5-difluorobenzoyl)amino]-1-(hydroxycarbamoyl)propyl]carbamoyl]-2-methyl-butyl]-N-methyl-pyrrolidine-2-carboxamide] (Ac-[NMeF]P[NMeIle(3ξ)][Dab](Benzoyl(3,5-F2))-{NHOH})		200			9.13	
CCC(C)[C@@H](C(=O)N[C@@H](CCNC(=O)c1cc(F)cc(F)c1)C(=O)NO)N(C)C(=O)[C@@H]1CCCN1C(=O)[C@H](C)N(C)C(C)=O (stereo partly drawn) [Example 12, (2 S)-1-[(2S)-2-[acetyl(methyl)amino]propanoyl]-N-[(1S)-1-[[(1S)-3-[(3,5-difluorobenzoyl)amino]-1-(hydroxycarbamoyl)propyl]carbamoyl]-2-methyl-butyl]-N-methyl-pyrrolidine-2-carboxamide] (Ac-[NMeA]P[NMeIle(3ξ)][Dab](Benzoyl(3,5-F2))-{NHOH})		157			14.9	
CCC(C)[C@@H](C(=O)N[C@@H](CCNC(=O)c1cc(F)cc(F)c1)C(=O)NO)N(C)C(=O)[C@@H]1CCCN1C(=O)CCN(C)C(C)=O (stereo partly drawn) [Example 13, (2S)-1-[3-[acetyl(methyl)amino]propanoyl]-N-[(1S)-1-[[(1S)-3-[(3,5-difluorobenzoyl)amino]-1-(hydroxycarbamoyl)propyl]carbamoyl]-2-methyl-butyl]-N-methyl-pyrrolidine-2-carboxamide]		200			200	
CCCC(=O)N(C)[C@@H](Cc1c[nH]c2ccccc12)C(=O)N(C)[C@@H](CC(C)C)C(=O)N1CCC[C@H]1C(=O)N(C)[C@H](C(=O)N[C@@H](CCNC(=O)c1cc(F)cc(F)c1)C(=O)NO)C(C)CC (stereo partly drawn) [Example 14, (2S)-1-[(2S)-2-[[(2S)-2-[butanoyl(methyl)amino]-3-(1H-indol-3-yl)propanoyl]-methyl-amino]-4-methyl-pentanoyl]-N-[(1S)-1-[[(1S)-3-[(3,5-difluorobenzoyl)amino]-1-(hydroxycarbamoyl)propyl]carbamoyl]-2-methyl-butyl]-N-methyl-pyrrolidine-2-carboxamide] (Butyryl-[NMeW][NMeL]P[NMeIle(3ξ)][Dab](Benzoyl(3,5-F2))-{NHOH})					6.07	<1
CC(=O)N1CCC[C@H]1C(=O)N(C)[C@@H](CCC(N)=O)C(=O)N[C@@H](Cc1c[nH]c2ccccc12)C(=O)NO [Example C20, (2S)-2-[[(2S)-1-acetylpyrrolidine-2-carbonyl]-methyl-amino]-N-[(1S)-2-(hydroxyamino)-1-(1H-indol-3-ylmethyl)-2-oxo-ethyl]pentanediamide, reference compound] (Ac-Pro-[NMeQ]-Trp-{NHOH})		> 2000			> 2000	

Next, values leading:

MMP-1 IC50 [1] [µM]	IC50 [2] [µM]	percentage of transport % T [3] [%]	Papp at 4 h, 200 µM [3] [×10⁻⁶ cm/s]	IC50 [1] [µM]	MMP-3 IC50 [2] [µM]	SMILES
<1	30.1	0.4	0.094			CCC(C)[C@@H](C(=O)N[C@@H](CCNC(=O)c1ccc(F)cc1)C(=O)NO)N(C)C(=O)[C@@H]1CCCN1C(C)=O (stereo partly drawn) [Example 1, (2S)-1-acetyl-N-[(1S)-1-[[(1S)-3-[(4-fluorobenzoyl)amino]-1-(hydroxycarbamoyl)propyl]carbamoyl]-2-methyl-butyl]-N-methyl-pyrrolidine-2-carboxamide]
	19.2	0.8	0.2	4.94		CCC(C)[C@@H](C(=O)N[C@@H](CCNC(=O)c1cc(F)cc(F)c1)C(=O)NO)N(C)C(=O)[C@@H]1CCCN1C(C)=O (stereo partly drawn) [Example 2, (2S)-1-acetyl-N-[(1S)-1-[[(1S)-3-[(3,5-difluorobenzoyl)amino]-1-(hydroxycarbamoyl)propyl]carbamoyl]-2-methyl-butyl]-N-methyl-pyrrolidine-2-carboxamide]
	25.4	9.3	2.3	6.82		CCCCCC(=O)N1CCC[C@H]1C(=O)N(C)[C@H](C(=O)N[C@@H](CCNC(=O)c1cc(F)cc(F)c1)C(=O)NO)C(C)CC (stereo partly drawn) [Example 3, (2S)—N-[(1S)-1-[[(1S)-3-[(3,5-difluorobenzoyl)amino]-1-(hydroxycarbamoyl)propyl]carbamoyl]-2-methyl-butyl]-1-hexanoyl-N-methyl-pyrrolidine-2-carboxamide]
	13.3	3.1	0.74	4.73		CCCC(=O)N1CCC[C@H]1C(=O)N(C)[C@H](C(=O)N[C@@H](CCNC(=O)c1cc(F)cc(F)c1)C(=O)NO)C(C)CC (stereo partly drawn) [Example 4, (2S)-1-butanoyl-N-[(1S)-1-[[(1S)-3-[(3,5-difluorobenzoyl)amino]-1-(hydroxycarbamoyl)propyl]carbamoyl]-2-methyl-butyl]-N-methyl-pyrrolidine-2-carboxamide]
	25.7	7.6	1.9	6.68		CCC(C)[C@@H](C(=O)N[C@@H](CCNC(=O)c1cc(F)cc(F)c1)C(=O)NO)N(C)C(=O)[C@@H]1CCCN1C(=O)CC(C)C (stereo partly drawn) [Example 5, (2S)—N-[(1S)-1-[[(1S)-3-[(3,5-difluorobenzoyl)amino]-1-(hydroxycarbamoyl)propyl]carbamoyl]-2-methyl-butyl]-N-methyl-1-(3-methylbutanoyl)pyrrolidine-2-carboxamide]
	3.1			6.1		CC(=O)N1CCC[C@H]1C(=O)N[C@@H](CCC(N)=O)C(=O)N[C@@H](Cc1c[nH]c2ccccc12)C(=O)NO [Example C17, (2S)-2-[[(2S)-1-acetylpyrrolidine-2-carbonyl)amino]-N-[(1S)-2-(hydroxyamino)-1-(1H-indol-3-ylmethyl)-2-oxo-ethyl]pentanediamide, reference compound] (Ac-Pro-Gln-Trp-{NHOH})
